Measured values from ChEMBL document CHEMBL1146428, “Effects of flavonoids isolated from scutellariae radix on fibrinolytic system induced by trypsin in human umbilical vein endothelial cells” (J Nat Prod, 1997).
pIC50: −log10 of the molar value. Activity calls are given as the source filed them. No cut-off for these calls is given here.

What was measured:
[1] = target: T1, Trypsin (Homo sapiens, UniProt P07477+P07478+P35030); experiment: Inhibition of trypsin-induced reduction in tPA production in HUVEC by ELISA; assay type: cell-based
[2] = target: T1, Trypsin; experiment: Inhibition of trypsin-induced elevation in PAI1 production in HUVEC by ELISA; assay type: cell-based
[3] = Inhibition of trypsin by protease assay system

Structure (SMILES)	Activity [1]	IC50 [2]	Activity [2]	pIC50 [3]
O=C(O)[C@H]1O[C@@H](Oc2cc3oc(-c4ccccc4)cc(=O)c3c(O)c2O)[C@H](O)[C@@H](O)[C@@H]1O [BAICALIN]	inactive	> 1000 µM		
O=c1cc(-c2ccccc2)oc2cc(O)c(O)c(O)c12 [BAICALEIN]	Dose-dependent effect	3.7 µM	Dose-dependent effect	6.30
COc1c(O[C@@H]2O[C@H](C(=O)O)[C@@H](O)[C@H](O)[C@H]2O)cc(O)c2c(=O)cc(-c3ccccc3)oc12	inactive	> 1000 µM		
O=C1C[C@@H](c2c(O)cccc2O)Oc2cc(O)cc(O)c21	inactive	> 1000 µM		
COc1c(O)ccc(O)c1-c1cc(=O)c2c(O)cc(O)c(OC)c2o1	inactive	88 µM		

The remaining lines, values ahead:

Activity [1]	IC50 [2]	Activity [2]	pIC50 [3]	Structure (SMILES)
inactive	61 µM			COc1c(O)cc2oc(-c3ccccc3)cc(=O)c2c1O [OROXYLIN A]
inactive	105 µM			COc1c(O)cc(O)c2c(=O)cc(-c3ccccc3)oc12 [WOGONIN]
inactive	110 µM			COc1cccc(O)c1-c1cc(=O)c2c(O)c(OC)c(OC)c(OC)c2o1 [SKULLCAPFLAVONE II]
